The target of series [1] is T1, STAT3 (Homo sapiens, UniProt P40763).
T1 construct: endogenous in cells; host or cells: primary human T cells from healthy-donor PBMC, allostimulated by monocyte-derived dendritic cells
Put plainly: IL-6-pulsed STAT3 phosphorylation in alloactivated T cells (flow cytometry). The series is classed as cell-based. From the text:
To confirm selective STAT3 inhibition, T cells were first briefly allostimulated by moDCs (DC:T cell ratio 1:30) and then pulsed with the relevant STAT3- or -5-dependent cytokine in the presence or absence of S3I-201. The 3-day exposure to allogenic moDCs allows the responding T cells to increase CD25 expression and capacity to receive IL-2 signaling, while resting or stimulated T cells phosphorylate STAT3 in response to IL-6 [Betts, B. C., et al. (2011) Blood 118, 5330-5339]. DC-allostimulated T cells (1×10^6) were then exposed to S3I-201 (50 or 100 μM) or DMSO for 4 h in serum-free RPMI (Corning Cellgro) to reduce background phosphorylation, followed by a 15 min pulse with IL-6 (4000 IU/ml) or -2 (50 IU/ml). T-cell STAT phosphorylation was determined by surface staining for CD3, followed by fixation (CytoFix; BD Biosciences), permeabilization with cold methanol, and intracellular staining for STAT3 and -5. The phosphorylated STAT3 and -5 geometric MFI ratio was calculated by dividing the geometric MFI of the cytokine-pulsed cells by the geometric MFI of the corresponding fluorochrome isotype.
In general terms: Flow cytometry measures light scatter and fluorescence of single cells or particles in a stream.

Series [2] has as its target T1, STAT3. The series is described as follows: STAT3 phosphorylation in CD4+ T cells of 5 day allo-MLRs without exogenous cytokine. Particulars: S3I-201 50 or 100 μM, 5 day allo-MLR. The series is classed as cell-based. The method, then: No exogenous cytokine was added. DC-allosensitized T cells were harvested on day 5. […] The ratio of CD4^+, pSTAT5^Bright to CD4^+, pSTAT3^+ T cells was calculated by percentage of phosphorylation.

In series [3] the test system is Foxp3 TSDR. The series is described as follows: iTreg Foxp3 demethylation assay. The series is classed as cell-based, human. Particulars: S3I-201 50 or 100 μM. The source says:
iTreg Foxp3 demethylation assay. […] (2013) J. Immunol. 190, 3180-3188; Miyao, T., et al. (2012) Immunity 36, 262-275]. The degree of Foxp3 TSDR demethylation among iTregs from DMSO-treated allo-MLRs, purified nTregs, and Tconvs served as the controls [[…]., et al. (2013) Blood 122(13):2251-61]. For these experiments, iTregs and nTregs were sorted to select the CD4^+ CD25^+ CD127^- population. PCR products were amplified by using methylation or demethylation specific TSDR forward and reverse primers from bisulphate-treated genomic DNA of sorted natural Tregs. DNA fragments were cloned into a pCR2.1-Topo vector (Life Technologies, Grand Island, N.Y., USA) and verified by DNA sequencing. The following TSDR primers and probes were used for PCR: methylation forward [NT] ID NO:1), reverse [NT] ID NO:2), and hydrolysis probe [NT] (SEQ ID NO:3); and demethylation forward [NT] ID NO:4), reverse [NT] ID NO:5), and hydrolysis probe [NT] ID NO:6). Standards were diluted at concentrations ranging from 2^7 to 2^3 plasmid copies of each methylation or demethylation TSDR. Genomic DNA was isolated by using the DNeasy Blood and Tissue kit (Qiagen, Valencia, Calif., USA) from sorted natural or expanded iTregs. Genomic DNA (200-500 ng) was treated with bisulfite from the EZ DNA Methylation-Gold Kit (Zymo Research, Irvine, Calif., USA). […]

Series [4] in a line: S3I-201 treatment of GVHD in vivo (B6 marrow +/- T-cells into Balb/c mice). From the text: FIG. 7. B6 T-cell depleted marrow (+/− T-cells) were given to Balb/c mice. S3I-201 or vehicle was given by i.p. from day 0 to day +7 only. Mice were then followed for body weight (FIG. 7B), GVHD clinical scores (FIGS. 7C, 7D), and survival (FIG. 7A).
B6 T-cell depleted marrow (+/− T-cells) were given to Balb/c mice. S3I-201 or vehicle was given by i.p. from day 0 to day +7 only. Mice were then followed for body weight (FIG. 7B), GVHD clinical scores (FIGS. 7C, 7D), and survival (FIG. 7A). […] All of the GVHD control mice (i.e., TCD marrow+T-cells+vehicle) have since died of GVHD.

Series [5] has as its system allostimulated T-cell proliferation. The series is described as follows: Primary 5-day alloMLR T-cell proliferation. The series is classed as cell-based, human. From the text:
(§1) Bulk donor T-cells were allostimulated with cytokine-matured, allogeneic moDCs at a DC:T-cell ratio of 1:30 as previously described (Florida Blood Services) [Betts, B C, et al. (2011) Blood 118:5330-9; Betts, B C, et al. […] Betts, B C, et al. (2011) Blood 118:5340-3]. […] Lower doses of each drug were used in these experiments to mimic expected physiologic concentrations [Siddiquee, K, et al. (2007) Proceedings of the National Academy of Sciences of the United States of America 104:7391-6; Zeiser, R, et al. (2008) Blood 111:453-62], and to better detect potential synergistic activity with the combination of rapamycin and S3I-201. After 5 days of culture at […]-cell proliferation was measured by a colorimetric assay per the manufacturer's instructions (CellTiter 96 Aqueous One Solution Cell Proliferation Assay [MTS]; Promega, Madison, Wis. USA) [Betts, B C, et al. (2011) Blood 118:5330-9; Betts, B C, et al. […] Betts, B C, et al. (2011) Blood 118:5340-3]. Absorbance/optical density (OD) was analyzed at 490 nm. Secondary alloMLR: […] Following priming, the T-cells were then rested and re-cultured with fresh first-party moDCs (DC:T-cell ratio of 1:30). […] After 3 days, T-cell proliferation was measured by a colorimetric assay as described (Promega). T-cells alone and PHA-stimulated T-cells served as negative and positive controls, respectively, for both the primary and secondary alloMLRs.

Series [6] has as its system primed T-cells. The series is described as follows: Secondary alloMLR (3-day restimulation of primed T-cells) proliferation. In kind it is cell-based, human.
Excerpt: as §1

We go through one molecule from US11406707B2, “STAT3 phosphorylation during graft-versus-host disease” (H. LEE MOFFITT CANCER CENTER AND RESEARCH INSTITUTE, INC., priority 2014, dated 2022).

T1 sequence (P40763 whole entry): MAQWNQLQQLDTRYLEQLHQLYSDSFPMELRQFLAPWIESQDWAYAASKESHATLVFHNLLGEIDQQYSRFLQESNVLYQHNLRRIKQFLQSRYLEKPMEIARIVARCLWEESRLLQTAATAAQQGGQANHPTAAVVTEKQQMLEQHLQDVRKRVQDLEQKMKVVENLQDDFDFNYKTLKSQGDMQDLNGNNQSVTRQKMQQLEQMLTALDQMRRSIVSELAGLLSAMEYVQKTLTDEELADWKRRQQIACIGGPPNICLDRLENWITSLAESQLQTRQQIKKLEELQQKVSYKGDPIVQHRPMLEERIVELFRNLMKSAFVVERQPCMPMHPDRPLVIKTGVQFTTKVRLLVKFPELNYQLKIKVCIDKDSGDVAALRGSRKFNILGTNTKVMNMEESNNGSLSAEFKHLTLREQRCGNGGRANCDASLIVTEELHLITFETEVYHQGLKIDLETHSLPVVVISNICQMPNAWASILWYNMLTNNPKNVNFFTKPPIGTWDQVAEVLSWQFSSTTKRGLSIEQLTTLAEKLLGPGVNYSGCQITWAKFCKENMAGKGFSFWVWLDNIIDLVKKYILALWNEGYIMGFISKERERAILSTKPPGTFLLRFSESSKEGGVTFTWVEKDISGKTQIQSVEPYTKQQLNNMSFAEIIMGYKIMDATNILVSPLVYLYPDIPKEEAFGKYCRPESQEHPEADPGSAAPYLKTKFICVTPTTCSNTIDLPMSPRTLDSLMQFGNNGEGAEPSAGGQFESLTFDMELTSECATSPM

As for `Cc1ccc(S(=O)(=O)OCC(=O)Nc2ccc(C(=O)O)c(O)c2)cc1` [S3I-201], the “IL-6-mediated STAT3 signaling” value in series [1] (S3I-201 50 and 100 μM, 4 h, 15 min IL-6 pulse) is given as “inhibited”. For the same molecule, the “concentration giving the highest degree of STAT3 inhibition selectivity” value in series [1] (STAT3 vs STAT5 phosphorylation) stood at 50 µM. Also, the “STAT3 phosphorylation in CD4+ alloresponders” value in series [2] is given as “maintained on-target suppression”. In series [3], the “iTreg Foxp3 demethylation compared with DMSO” value is “significantly enhanced”. Besides, the tolerability entry in series [4] (2.5 mg/kg i.p. day 0 to day +7) was “well tolerated”; in series [4] (5 mg/kg i.p. day 0 to day +7) it was “toxic”. Further, in series [4] (S3I-201 i.p. day 0 to day +7, GVHD control mice all died), the survival entry is “alive at day +53”. The “allostimulated T-cell proliferation” value in series [5] (S3I-201 50 uM single agent) is “significantly reduced”. Also, in series [5] (S3I-201 below 50 μM single agent), the “alloreactive T-cell proliferation” value was “no effect”. Further, in series [6] (Homo sapiens, T-cell, S3I-201 50 μM, read-out: inhibition of proliferation in comparison to DMSO), the inhibition at 50 µM was 67%. In addition, the “proliferation of primed T-cells on rechallenge” value in series [6] (S3I-201 50 μM alone) is listed as “significantly suppressed”.
